Experimental data published in patent publication EP0015544A2, “Derivatives of the mercaptopropionamido-acetic acid, process for the preparation thereof and compositions” (ZAMBON S.p.A., priority 1979, dated 1980).

Key:
in vivo = conditions: ip, i.p. administration in the mouse, buffered with sodium bicarbonate at pH 6, read-out: DL50 (the source's name)
[1] = test system: mucins of the fibrillar reticulum; assay: glycopeptide analysis of bronchial mucus from orally treated patients; type: in vivo; conditions: comparative test, 70 mg/kg/die
Procedure: The analysis of the glycopeptides of the bronchial mucus obtained by hydrolysis with papaine (24 hours at 37°C, pH 6.5) followed by pronasis (24 hours at 37°C at pH 7.3) and fractionation by electrophoresis on agarose at pH 8.6 and finally chromatografy on DEAE -Sephadex A/25 column has shown an average increasing of about 100% of the sialoglycopeptides (hydrophil- ics) with a reduction higher than 60% of the weakly acid glycopeptides and neutral mucins (hydrophobics) followed by lowering of the viscosity.

[2] = test system: bronchial ipersecretion induced with S02; assay: bronchial hypersecretion induced with SO2 in rats; type: in vivo; conditions: oral, two weeks, 0.5 g/kg/die (esters: equivalent to 0.5 g/kg/die of free acid); 300 ppm SO2 two hours a day, total 90 hours; untreated animals 80%
From the text: Under the same experimental conditions in tests carried out with Carbocysteine at the same dose (0.5 g/kg/die) the percentage of the non protected animals was 25%.

[3] = test system: intrabronchial desquamation and the reactive mucousa iperplasye; assay: CCl nebulization in rats, bronchial desquamation and mucosal hyperplasia; type: in vivo; conditions: oral 0.5 g/kg/die (esters: equivalent to 0.5 g/kg/die of the acid); nebulization 10 days, 5 nebulizations for 2 minutes a day

Compound: CC(SCC(=O)O)C(=O)NCC(=O)O (stereo not shown) [S-carboxymethyl-propionyl-glycine]
- LD50 (in vivo): 5420 mg/kg

Compound: O=C(O)CNC(=O)CCSCC(=O)O [beta-(S-carboxvmethvl)-propionvl-qlvcine]
- LD50 (in vivo): 5500 mg/kg

Compound: N[C@@H](CSCC(=O)O)C(=O)O [Carbocysteine]
- average increasing of the sialoglycopeptides [1]: ≤ 75%
- decreasing of the glycopeptides and mucins [1]: ≤ 45%
- LD50 (in vivo): 5180 mg/kg
- bronchial obstruction, percentage of treated (non protected) animals [2]: 25%
- hindering of the intrabronchial desquamation and the reactive mucousa iperplasye [3]: ≤ 40%
